Results: US20210032253A1, “PYRAZOLO[1,5-A][1,3,5]TRIAZINE-2-AMINE DERIVATIVE, PREPARATION METHOD THEREFOR AND MEDICAL USE THEREOF” (JIANGSU HENGRUI MEDICINE CO., LTD., priority 2018, published 2021)

Legend:
[1] = Pharmacokinetics assay in mice after intragastrical administration (plasma, LC/MS/MS); format: in vivo; conditions: mouse, po, C57 mice (female), 2 mg/kg; for Vd/F: read-out: Apparent distribution volume Vz/F; for AUC: read-out: Area under curve AUC; for CL/F: read-out: Clearance CLz/F; for Cmax: read-out: Drug concentration in blood Cmax; for half-life: read-out: Half-life T1/2 (converted); for MRT: read-out: Residence time MRT
Method: Test Example 2. Pharmacokinetics assay of the compounds of the present disclosure in mice
Mice were used as test animals. The drug concentration in plasma at different time points was determined by LC/MS/MS method after intragastrical administration of the compounds of Example 1, Example 18 and Example 19 to mice. The pharmacokinetic behavior of the compounds of the present disclosure was studied and evaluated in mice.
Twenty-seven C57 mice (female) were purchased from Shanghai Jiesijie Laboratory Animal Co., LTD, with Certificate No.: SCXK (Shanghai) 2013-0006, and equally divided into 3 groups (9 mice per group).
A certain amount of the test compound was weighed, and added with 2.5% by volume of DMSO, 2.5% by volume of tween 80 and 95% by volume of normal saline to prepare a 0.1 mg/mL colorless, clear and transparent solution.
After an overnight fast, C57 mice were administered intragastrically with the test compounds at an administration dose of 2.0 mg/kg and an administration volume of 0.2 mL/10 g.
The mice were intragastrically administered with the compounds of Example 1, Example 18 and Example 19. 0.1 mL of blood (3 animals at each time point) was taken before administration and at 0.5, 1.0, 2.0, 4.0, 6.0, 8.0, 11.0 and 24.0 hours after administration. The samples were stored in heparinized tubes, and centrifuged for 10 minutes at 3,500 rpm to separate the plasma. The plasma samples were stored at −20° C., the mice was feed 2 hours after administration.
The content of the test compounds in the plasma of the mice after intragastrical administration of the test compounds at different concentrations was determined: 25 μL of the plasma obtained at each time point after administration was taken, added with 30 μL of the internal standard solution of camptothecin (100 ng/mL) and 200 μL of acetonitrile, vortex-mixed for 5 minutes, and centrifuged for 10 minutes (4000 rpm). 3 μL of the supernatant was taken for LC/MS/MS analysis.

[2] = target: T1, adenosine A1 receptor (A1R) (Homo sapiens, UniProt P30542); test: Inhibition of adenosine A1 receptor cAMP signaling pathway in CHO-K1/A1R cells (HTRF cAMP dynamic 2 kit); format: cell-based; conditions: Table 2; for IC50: CHO-K1/A1R cells, cAMP, 10 μM forskolin, 10 nM CPA; for IC50 ratio (A1R/A2aR): selectivity A1R over A2aR
T1 construct: expressed in transfected cells; host or cells: CHO-K1
T1 sequence (P30542 1-326): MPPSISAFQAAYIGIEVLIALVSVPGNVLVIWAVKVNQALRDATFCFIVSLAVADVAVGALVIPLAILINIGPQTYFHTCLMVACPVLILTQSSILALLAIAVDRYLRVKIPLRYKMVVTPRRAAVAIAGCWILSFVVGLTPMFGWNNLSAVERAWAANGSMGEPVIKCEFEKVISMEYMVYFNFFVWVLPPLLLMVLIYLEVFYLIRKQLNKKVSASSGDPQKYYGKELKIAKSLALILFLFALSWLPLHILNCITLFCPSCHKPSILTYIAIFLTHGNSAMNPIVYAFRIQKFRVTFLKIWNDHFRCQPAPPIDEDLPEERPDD
How it was run: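 CHO-K1 cells stably expressing A1R, in HBSS with 20 mM HEPES, 0.1% BSA, rolipram and adenosine deaminase, were pre-incubated 30 min at RT with compound (0.1–100000 nM final). Cells were then stimulated 30 min with 10 μM forskolin plus 10 nM CPA. Intracellular cAMP was read by HTRF after 1 h detection.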

Row | SMILES | Vd/F [1] [L/kg] | AUC [1] [µg·h/mL] | CL/F [1] [L/h/kg] | Cmax [1] [µg/mL] | half-life [1] [h] | MRT [1] [h] | IC50 [2] [nM] | IC50 ratio (A1R/A2aR) [2]
1 | Cc1ccc(-c2nc(N)nc3c(Cc4cccc(CO[C@H]5CCOC5)n4)cnn23)o1 [Example 1, (S)-4-(5-Methylfuran-2-yl)-8-((6-(((tetrahydrofuran-3-yl)oxy)methyl)pyridin-2-yl)methyl)pyrazolo[1,5-a][1,3,5]triazin-2-amine] | 1.9 | 0.724 | 2.75 | 0.8 | 0.48 | 0.85 | 1120 | >10^3
2 | Cc1ccc(-c2nc(N)nc3c(Nc4cccc(CO[C@H]5CCOC5)n4)cnn23)o1 [Example 18, (S)-4-(5-Methylfuran-2-yl)-N^8-(6-(((tetrahydrofuran-3-yl)oxy)methyl)pyridin-2-yl)pyrazolo[1,5-a][1,3,5]triazine-2,8-diamine] | 0.841 | 4.86 | 0.41 | 3.18 | 1.42 | 1.63 | 2540 | >10^3
3 | Cc1ccc(-c2nc(N)nc3c(Oc4cccc(CO[C@H]5CCOC5)n4)cnn23)o1 [Example 19, (S)-4-(5-Methylfuran-2-yl)-8-((6-(((tetrahydrofuran-3-yl)oxy)methyl)pyridin-2-yl)oxy)pyrazolo[1,5-a][1,3,5]triazin-2-amine] | 2.12 | 2.49 | 0.798 | 2.36 | 1.85 | 1.24 | 2860 | >10^3
